From patent US20220089661A1 (priority 2019, published 2022)
pIC50: −log10 of the molar value. Where “and” joins values, the source holds several entries; their conditions need not be identical. Identical values can stand only once.

Columns and labels:
Type in all cases: cell-based
[1] = system: Fusarium graminearum
[2] = system: Botrytis cinerea
[3] = system: Botrytis cinerea; remark: listed apart in the source
[4] = system: Fusarium graminearum; remark: listed apart in the source

## OeDef7 (RICESLSHRFKGPCVRRGNCAAVCQTEGFPGGLCRGFRRRCFCTKHC; listed as Olea europaea)
[1]
  pIC50: 5.82 to 6.00 and 5.52 to 5.70
[2]
  MLC: 4 µM and 6 µM
[3]
  pIC50: 5.52 to 5.70 and 5.40 to 5.52
[4]
  MLC: 3 µM and 6 µM
